Laboratory results taken from ChEMBL document CHEMBL1126091, “Ring substituted and other conformationally constrained tyrosine analogues of [D-Pen2,D-Pen5]enkephalin with delta opioid receptor selectivity” (J Med Chem, 1992).

Legend:
[1] = biological target: T1, Delta-type opioid receptor (Mus musculus, UniProt P32300); assay: Compound was evaluated for […] at Opioid receptor delta 1
[2] = biological target: T2, Delta-type opioid receptor (Rattus norvegicus, UniProt P33533); assay: Compound was evaluated for the binding affinity in comparison with [3H][p-Cl-Phe4]-DPDPE (delta opioid receptor selective ligand)
T2 sequence (P33533 whole entry): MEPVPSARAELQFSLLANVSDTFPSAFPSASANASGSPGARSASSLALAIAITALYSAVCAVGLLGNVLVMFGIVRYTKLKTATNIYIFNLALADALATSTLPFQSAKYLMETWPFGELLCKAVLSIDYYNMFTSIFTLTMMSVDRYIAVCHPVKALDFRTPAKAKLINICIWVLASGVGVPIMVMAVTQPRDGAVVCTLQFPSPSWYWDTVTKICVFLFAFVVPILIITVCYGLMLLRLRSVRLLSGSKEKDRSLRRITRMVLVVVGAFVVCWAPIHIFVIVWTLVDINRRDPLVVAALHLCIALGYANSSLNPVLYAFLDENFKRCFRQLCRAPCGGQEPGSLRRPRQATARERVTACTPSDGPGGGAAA

[3] = biological target: T3, Mu-type opioid receptor (Rattus norvegicus, UniProt P33535); assay: Compound was evaluated for its ability to displace [3H]- CTOP (mu opioid receptor selective ligand)
T3 sequence (P33535 whole entry): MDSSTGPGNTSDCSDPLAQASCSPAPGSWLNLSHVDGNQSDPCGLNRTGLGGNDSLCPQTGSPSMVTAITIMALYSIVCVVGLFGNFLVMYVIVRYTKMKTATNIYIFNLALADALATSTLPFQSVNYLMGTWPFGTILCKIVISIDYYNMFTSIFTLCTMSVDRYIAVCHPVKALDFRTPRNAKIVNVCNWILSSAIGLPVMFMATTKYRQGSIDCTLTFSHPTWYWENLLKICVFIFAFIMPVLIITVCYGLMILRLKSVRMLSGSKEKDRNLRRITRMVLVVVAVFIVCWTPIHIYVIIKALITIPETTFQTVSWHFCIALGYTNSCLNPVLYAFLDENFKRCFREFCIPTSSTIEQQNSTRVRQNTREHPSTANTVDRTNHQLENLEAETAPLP

[4] = Macroscopic pKa value of the compound; assay type: physicochemical
[5] = biological target: T1, Delta-type opioid receptor; assay: Compound was evaluated for its inhibitory potency against Opioid receptor delta 1 of Mouse vas deferens; assay type: tissue-based
[6] = biological target: Delta-type opioid receptor (Homo sapiens) (UniProt P41143); assay: Compound was evaluated for the percentage of maximum inhibition at opioid receptor delta
Chain of Delta-type opioid receptor (Homo sapiens) (P41143 whole entry): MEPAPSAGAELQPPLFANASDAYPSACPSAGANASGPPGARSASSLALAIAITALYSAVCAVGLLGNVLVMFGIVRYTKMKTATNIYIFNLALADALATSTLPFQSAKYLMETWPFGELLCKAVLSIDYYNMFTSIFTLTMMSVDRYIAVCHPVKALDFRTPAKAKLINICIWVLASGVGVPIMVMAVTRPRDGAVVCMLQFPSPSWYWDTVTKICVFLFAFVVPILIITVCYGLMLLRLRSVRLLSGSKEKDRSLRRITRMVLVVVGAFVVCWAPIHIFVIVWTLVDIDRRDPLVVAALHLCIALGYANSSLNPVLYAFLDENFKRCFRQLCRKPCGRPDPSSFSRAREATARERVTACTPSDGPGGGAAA

[7] = biological target: T2, Delta-type opioid receptor; assay: Compound was evaluated for the binding affinity in comparison with [3H][p-Cl-Phe4]-DPDPE (opioid receptor delta selective ligand)
[8] = biological target: T3, Mu-type opioid receptor; assay: Compound was evaluated for its ability to displace [3H]- CTOP (opioid receptor mu selective ligand)
[9] = biological target: T1, Delta-type opioid receptor; assay: Compound was evaluated for its inhibitory potency against opioid receptor delta of Mouse vas deferens; assay type: tissue-based
[10] = biological target: T2, Delta-type opioid receptor; assay: Compound was evaluated for the binding affinity in comparison with [3H]- DPDPE (opioid receptor delta selective ligand)

T1 sequence (P32300 whole entry): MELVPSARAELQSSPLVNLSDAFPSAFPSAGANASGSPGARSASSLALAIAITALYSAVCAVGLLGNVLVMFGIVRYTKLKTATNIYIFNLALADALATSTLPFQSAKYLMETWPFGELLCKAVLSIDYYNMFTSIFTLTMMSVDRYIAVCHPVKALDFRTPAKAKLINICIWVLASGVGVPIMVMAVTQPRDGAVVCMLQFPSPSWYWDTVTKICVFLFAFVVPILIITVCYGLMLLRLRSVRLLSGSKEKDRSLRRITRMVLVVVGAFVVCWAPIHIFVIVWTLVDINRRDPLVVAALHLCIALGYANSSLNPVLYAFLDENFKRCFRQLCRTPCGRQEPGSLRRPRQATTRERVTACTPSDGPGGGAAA

Question: Which IC50 [1] does the source give for `C[C@H](c1ccc(O)cc1)[C@H](N)C(=O)N[C@H]1C(=O)NCC(=O)N[C@@H](Cc2ccccc2)C(=O)N[C@@H](C(=O)O)C(C)(C)SSC1(C)C` here?
Answer: 14.6 nM

Question: What about the IC50 [2] of the same compound?
Answer: 84.8 nM

Question: What about the IC50 [3] of the same compound?
Answer: > 20000 nM

Question: Which pKa [4] does the source give for `CC1(C)SSC(C)(C)[C@@H](NC(=O)[C@@H](N)Cc2ccc(O)c([N+](=O)[O-])c2)C(=O)NCC(=O)N[C@@H](Cc2ccccc2)C(=O)N[C@H]1C(=O)O` here?
Answer: 7.2

Question: With `C[C@H](c1ccc(O)cc1)[C@@H](N)C(=O)N[C@H]1C(=O)NCC(=O)N[C@@H](Cc2ccccc2)C(=O)N[C@@H](C(=O)O)C(C)(C)SSC1(C)C` as the compound, how does the IC50 [5] read?
Answer: 20700 nM

Question: What about the IC50 [2] of the same compound?
Answer: 426 nM

Question: And the IC50 [3]?
Answer: 22800 nM

Question: With `CC1(C)SSC(C)(C)[C@@H](NC(=O)[C@]2(N)CCC3C=C(O)C=CC3C2)C(=O)NCC(=O)N[C@@H](Cc2ccccc2)C(=O)N[C@H]1C(=O)O` (stereo in doubt; 9) [listing 1 of 2 here] as the compound, how does the Emax [6] read?
Answer: 79%

Question: For `C[C@@H](c1ccc(O)cc1)[C@@H](N)C(=O)N[C@H]1C(=O)NCC(=O)N[C@@H](Cc2ccccc2)C(=O)N[C@@H](C(=O)O)C(C)(C)SSC1(C)C`, which IC50 [1] is on record?
Answer: 698 nM

Question: What about the IC50 [2] of the same compound?
Answer: 20000 nM

Question: What about the IC50 [3] of the same compound?
Answer: > 40000 nM

Question: Which results are given for `Cc1cc(O)ccc1C[C@@H](N)C(=O)N[C@H]1C(=O)NCC(=O)N[C@@H](Cc2ccccc2)C(=O)N[C@@H](C(=O)O)C(C)(C)SSC1(C)C`?
Answer: IC50 [1]: 763 nM; IC50 [2]: 1130 nM; IC50 [3]: 16600 nM

Question: Which Emax [6] does the source give for `CC1(C)SSC(C)(C)[C@@H](NC(=O)[C@]2(N)CCC3C=C(O)C=CC3C2)C(=O)NCC(=O)N[C@@H](Cc2ccccc2)C(=O)N[C@H]1C(=O)O` (stereo in doubt; 8) [listing 1 of 2 here] here?
Answer: 31%

Question: What does the source list for `CC1(C)SSC(C)(C)[C@@H](NC(=O)[C@]2(N)CCC3C=C(O)C=CC3C2)C(=O)NCC(=O)N[C@@H](Cc2ccccc2)C(=O)N[C@H]1C(=O)O` (stereo in doubt; 9) [listing 2 of 2 here]?
Answer: IC50 [7]: 2.36 nM; IC50 [8]: 1440 nM; IC50 [9]: 22 nM

Question: For `CC1(C)SSC(C)(C)[C@@H](NC(=O)[C@@H](N)Cc2ccc(O)c(I)c2)C(=O)NCC(=O)N[C@@H](Cc2ccccc2)C(=O)N[C@H]1C(=O)O`, which pKa [4] is on record?
Answer: 8.2

Question: Which pKa [4] does the source give for `COc1cc(C[C@H](N)C(=O)N[C@H]2C(=O)NCC(=O)N[C@@H](Cc3ccccc3)C(=O)N[C@@H](C(=O)O)C(C)(C)SSC2(C)C)ccc1O` here?
Answer: 9.7

Question: Which results are given for `C[C@@H](c1ccc(O)cc1)[C@H](N)C(=O)N[C@H]1C(=O)NCC(=O)N[C@@H](Cc2ccccc2)C(=O)N[C@@H](C(=O)O)C(C)(C)SSC1(C)C`?
Answer: IC50 [1]: 243 nM; IC50 [2]: 440 nM; IC50 [3]: 18600 nM

Question: With `Cc1cc(O)ccc1C[C@H](N)C(=O)N[C@H]1C(=O)NCC(=O)N[C@@H](Cc2ccccc2)C(=O)N[C@@H](C(=O)O)C(C)(C)SSC1(C)C` as the compound, how does the IC50 [10] read?
Answer: 0.89 nM

Question: And the IC50 [8]?
Answer: 1170 nM

Question: And the IC50 [9]?
Answer: 4.52 nM

Question: Which results are given for `CC1(C)SSC(C)(C)[C@@H](NC(=O)[C@]2(N)CCC3C=C(O)C=CC3C2)C(=O)NCC(=O)N[C@@H](Cc2ccccc2)C(=O)N[C@H]1C(=O)O` (stereo in doubt; 8) [listing 2 of 2 here]?
Answer: IC50 [7]: 24.5 nM; IC50 [8]: 2820 nM; IC50 [9]: 137 nM

Question: Which pKa [4] does the source give for `CC1(C)SSC(C)(C)[C@@H](NC(=O)[C@@H](N)Cc2ccc(O)c(N)c2)C(=O)NCC(=O)N[C@@H](Cc2ccccc2)C(=O)N[C@H]1C(=O)O` here?
Answer: 10
